From patent US11713293B2, “Substituted biaryl sulfonamides and the use thereof” (NovoMedix, LLC, priority 2012, dated 2023) come the findings set out here.

Where two headings read alike, the source gives them in different places.

For series [1], the system named is m7GpppN-capped luciferase mRNA reporter. The series can be described thus: In vitro HeLa cell extract translation system, translation inhibition. The class given is biochemical. The settings on record: at 10 μM. Here is the method: In one embodiment, the compounds provided herein were assayed for translation inhibition activity using an in vitro HeLa cell extract translation system with an m7GpppN-capped luciferase mRNA reporter.

Series [2] concerns cyclin D3. The series can be described thus: Cyclin D3 levels by Western blot in MDA-MB-231 cells. The format is cell-based. The note with it: 10 μM, at 18 and 24 h. Here is the method:
Cyclin D is one of the most commonly overexpressed genes in breast cancer and high levels correlate with poor prognosis. Furthermore, cyclin D overexpression is correlated with triple-negative basal-like tumors. In one embodiment, the effects of a compound provided herein on cyclin D overexpression were evaluated. […] The density ratio of the cyclin D3 band to respective beta-actin band was determined by Western blot analysis and normalized to DMSO (100%).
(A western blot detects proteins with antibodies after separation by electrophoresis.)

The nature of series [3]: Plasma and tumor concentrations at sacrifice in MDA-MB-231 xenograft mice. The class given is in vivo, Mouse/nude. Here is the method: At study termination, mice still undergoing treatment were given a final dose of compound and sacrificed 2 h later. Average concentrations of compounds in plasma and tumor were determined.
In series [4] the test system is triple negative breast cancer cell line 4T1. The series can be described thus: Cell-based IC50 assay, adherent cells, 4T1. The settings on record: 72 hours, CellTiter 96 Aqueous One. Here is the method:
(§1) In one embodiment, the IC50s of the compounds provided herein were determined in cell-based assays using adherent cells. In one embodiment, the activity of the compounds provided herein were determined in a cell-based assay using the triple negative breast cancer cell line MDA-MB-468. In one embodiment, the activity of the compounds provided herein were determined in a cell-based assay using the triple negative breast cancer cell line MDA-MB-231. In one embodiment, the activity of the compounds provided herein were determined in a cell-based assay using the triple negative breast cancer cell line 4T1.
In one embodiment, the cell-based assay may be carried out as provided herein. On day 0, cells were seeded at 20,000 cells per well in 100 μL of media into individual wells of a 96-well tissue culture plate. The next day, compounds were diluted to twice the desired final concentration and added in 100 μL of media for a final volume of 200 μL. Standard solutions for each compound were prepared at 1000× concentration in DMSO. The highest concentration was 30 mM. […] Cells were placed back in the incubator, and the absorbance at 490 nm was read after 2-3 hours. […] “Percent Viability” was determined by subtracting the average background value (media only) and expressed as a ratio to the average value obtained from cells treated with only DMSO.

Series [5] relates to triple negative breast cancer cell line MDA-MB-468. The series can be described thus: Cell-based IC50 assay, adherent cells, MDA-MB-468. The settings on record: Homo sapiens, 72 hours, CellTiter 96 Aqueous One, metabolically active cells decreased by 50%. The procedure: as §1
(§2) In one embodiment, the cell-based assay may be carried out as provided herein. On day 0, cells were seeded at 20,000 cells per well in 100 μL of media into individual wells of a 96-well tissue culture plate. The next day, compounds were diluted to twice the desired final concentration and added in 100 μL of media for a final volume of 200 μL. Standard solutions for each compound were prepared at 1000× concentration in DMSO. The highest concentration was […]. Serial 1:1 dilutions were made from there for a 6- or 9-point curve (e.g., 20 mM, 10 mM, 5 mM, etc). Compounds were then diluted 1:500 in media, and 100 μL of the resulting solution was added to each well for a final dilution of 1:1000. Each concentration of compound was tested in triplicate. Cells were incubated at 37° C. with 5% CO2. After 72 hours, 20 μL of CellTiter 96 Aqueous One Solution Cell Proliferation Assay (Promega) was added to each well. Cells were placed back in the incubator, and the absorbance at 490 nm was read after 2-3 hours. The concentration of compound that decreased the number of metabolically active cells by 50% was determined and reported as the IC50. “Percent Viability” was determined by subtracting the average background value (media only) and expressed as a ratio to the average value obtained from cells treated with only DMSO.
The IC50s of the compounds provided herein and some reference compounds were determined in cell-based assay using triple negative breast cancer cell line MDA-MB-468.

The test system of series [6] is triple negative breast cancer cell line MDA-MB-231. The series can be described thus: Cell-based IC50 assay, adherent cells, MDA-MB-231. The settings on record: Homo sapiens, 72 hours, CellTiter 96 Aqueous One. Here is the method:
as §1, §2

Series [7] has as its system MDA-MB-231 breast tumors. The series can be described thus: Tumor growth inhibition in MDA-MB-231 xenograft model for breast cancer. The format is in vivo, Mouse/nude. Here is the method:
In one embodiment, the effects of a compound provided herein on tumor growth in a mouse animal model were evaluated. In specific embodiments, the mouse animal model was the MDA-MB-231 xenograft model for breast cancer. Studies were performed to evaluate the effect of a compound provided herein on the growth of MDA-MB-231 breast tumors in mice. The test system that was used is summarized below:
Animals were housed 10 mice per cage in micro-isolators, with sterile corn cob bedding, food, and water. Mice were acclimated for 3 days and given food and tap water ad libitum. Animals were examined prior to initiation of the study to assure adequate health and suitability. […] During the course of the study, 12-hour light/12-hour dark cycle were maintained. A nominal temperature range of 20-23° C. with a relative humidity between 30% and 70% was maintained. LabDiet 5053-certified PicoLab Rodent Diet and sterile water were provided ad libitum during the study.
Exemplary Protocol: Ten mice per group were inoculated s.c. on the left flank with 5×10^6 MDA-MB-231 cells. When tumors reached a mean volume of approximately 100 mm^3, animals began treatment with a compound provided herein (See Table 5). […] Tumors were evaluated every Monday, Wednesday and Friday, body weights and condition were evaluated on a daily basis. […]
Tumor Measurement: Tumors were monitored daily. If, during a daily evaluation, an animal's tumor appeared to have exceeded 1500 mm^3, the tumor was measured; and animals with tumors greater than 1500 mm^3 and/or that had become necrotic and/or hindered movement were euthanized. Tumors were measured twice weekly by measuring each tumor in 2 dimensions, along the largest dimension (length, L) and perpendicular to this dimension (width, W). Tumor weights were calculated using the standard formula: (L×W^2)/2. The mean tumor weight and standard error of the mean were calculated for each group at each time point. […]
Animal Weight: All animals were weighed twice weekly throughout the study. Group weight change was expressed as a daily group mean weight. […]

The subject of series [8] is purified luciferase protein. The series can be described thus: Inhibition of purified luciferase protein (specificity control). The format is biochemical. The settings on record: at 100 μM.
The nature of series [9]: PK study and oral bioavailability, mouse. The class given is in vivo. The note with it: plasma 0 to 6 h.
In series [10] the test system is highly structured 5′-UTR HB3 (triple stem loop) reporter. The series can be described thus: Translation of mRNAs with highly structured 5′-UTR versus unstructured. Here is the method:
Many proteins that drive cancer growth and survival (including the cyclins, c-myc, and Pim-1) have secondary structures in the 5′-UTR of their mRNA that limit the rate of translational initiation. In one embodiment, the effects of a compound provided herein on translation of such mRNAs relative to mRNAs without highly structured 5′-UTRs were evaluated.

As for `CC(C)c1cc(C(C)C)c(S(=O)(=O)Nc2cc(C(F)(F)F)cc(C(F)(F)F)c2)c(C(C)C)c1` [Compound 1, N-[3,5-Bis(trifluoromethyl)phenyl]-2,4,6-triisopropyl-benzenesulfonamide], the “inhibition of luciferase activity vs. DMSO” value in series [1] was determined as 97.4%. The “cyclin D3 levels (density ratio to beta-actin, normalized to DMSO)” value in series [2] is recorded as “decrease in cyclin D3 levels”. Further, the “levels in plasma and tumor samples after discontinued treatment” value in series [3] (mice that discontinued treatment on Day 31, at study termination) is recorded as “detectable levels”. Moreover, in series [3] (nude, mouse, plasma, intraperitoneal, treated until the end: No, none after day 31, sacrificed day 45, read-out: Ave. Plasma Conc.), the concentration at 14 days came out at 50 ± 20 nM. In series [3] (nude, mouse, plasma, intraperitoneal, treated until the end: Yes, 50/25 mg/kg, sacrificed day 45, 2 h after final dose, read-out: Ave. Plasma Conc.), the concentration at 2 h was determined as 2330 ± 270 nM. The “Ave. Tumor Conc.” value in [3] (treated until the end: No, none after day 31, sacrificed day 45) is 0.07 ± 0.04 μM/g of tumor tissue; in series [3] (treated until the end: Yes, 50/25 mg/kg, sacrificed day 45, 2 h after final dose) it was 1.25 ± 0.09 μM/g of tumor tissue. In addition, the half-inhibitory concentration (IC50) (commonly the concentration at which inhibition is half-maximal) in [4] worked out at 15 µM; in [5] it was 5 µM; in [6], 13 µM. Besides, in [7] (qd IP 50 mg/kg, reduced to 25 mg/kg on day 7, vehicle group 898±260 mm^3), the “mean tumor volume at Day 31” value was determined as 276±119 mm^3. Besides, in [7] (qd IP 50/25 mg/kg, Days 1 to 31, vehicle group 4.2%), the mean weight gain was found to be 0.1%. In addition, in series [7] (within 10 days of withdrawal, from day 32), the “tumor growth after drug withdrawal” value is on record as “tumor growth did not resume”. In series [8], the “inhibition of purified luciferase protein” value is “no inhibition”. Further, the C0 in series [9] (IV 5 mg/kg, read-out: IV Administration (5 mg/kg) C0) turned out to be 54600 ng/mL; in [9] (PO 25 mg/kg, read-out: PO Administration (25 mg/kg) C0) it was 5150 ng/mL. For the same compound, the half-life was 2.1 h in series [9] (IV 5 mg/kg, read-out: IV Administration (5 mg/kg) T½ (converted)) and 1.5 h in series [9] (PO 25 mg/kg, read-out: PO Administration (25 mg/kg) T½ (converted)). Besides, the “inhibition of highly structured 5′-UTR reporter relative to mRNAs without highly structured 5′-UTRs” value in [10] is given as “preferential inhibition”.
